Results on 19 compounds are retold here after patent publication US8552002B2 (Novartis AG, priority 2004, dated 2013).

In general, inhibition refers to the drop in the measured response relative to a control, in per cent.

Common to all, as to assay type: biochemical
The target in test [1] is T1, KDR (Homo sapiens, UniProt P35968).
T1 construct: expressed in transfected cells; host or cells: CHO cells
Briefly: Inhibitory activity against KDR (VEGF-R2), in vitro data of Examples 170 and 207. Particulars: 10 μM; Examples 1 to 169; read-out: KDR inhibition at 10 μM. Put shortly: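 KDR tyrosine phosphorylation detected by luminescence after overnight 4° C capture of 20 μg lysate protein with PY20:AP antibody. Lysates came from cells given compound for 2 h at 37° C, then final 20 ng/ml VEGF for 5 min; compound-free medium as control.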

In test [2] the target is T2, FGFR3 (K650E) (Homo sapiens, UniProt P22607, K650E).
T2 construct: amino acids 411-806 of the cytoplasmic domain of human FGFR-3, N-terminally fused to GST; made in house; host or cells: Sf9 insect cells (baculovirus)
T2 sequence (P22607 411-806 K650E): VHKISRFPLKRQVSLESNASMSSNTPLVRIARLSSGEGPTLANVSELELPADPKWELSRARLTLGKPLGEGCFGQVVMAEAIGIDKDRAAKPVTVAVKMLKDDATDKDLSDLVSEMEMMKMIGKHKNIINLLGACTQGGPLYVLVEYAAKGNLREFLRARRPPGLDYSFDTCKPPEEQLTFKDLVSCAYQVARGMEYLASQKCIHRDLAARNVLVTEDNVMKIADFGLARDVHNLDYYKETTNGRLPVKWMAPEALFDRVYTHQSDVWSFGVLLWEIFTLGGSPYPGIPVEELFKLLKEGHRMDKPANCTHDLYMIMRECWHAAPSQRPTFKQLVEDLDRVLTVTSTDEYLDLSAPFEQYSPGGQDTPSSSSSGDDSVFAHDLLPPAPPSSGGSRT
Briefly: Recombinant GST-FGFR-3-K650E tyrosine kinase assay (33P into poly(Glu,Tyr)). Particulars: 10 μM; Examples 1 to 169; read-out: FGFR3 (K650E) inhibition at 10 μM.

Test [3] has as its target T3, Tek (Homo sapiens, UniProt Q02763).
T3 construct: amino acids 773-1124 of the cytoplasmic kinase domain of human Tek, N-terminally fused to GST; made in house; host or cells: Sf9 insect cells (baculovirus)
Briefly: Recombinant GST-Tek (Tie-2) tyrosine kinase assay (33P into poly(Glu,Tyr)). Particulars: Examples 1 to 169. The method in brief:
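Read-out is filter-bound 33P in poly(Glu,Tyr) 4:1 (10 μg/mL) after 30 min at ambient temperature with 4.0 μM ATP. Enzyme: 150 ng human GST-Tek (aa 773-1124) from insect cells, in Tris pH 7.5 with Mn2+/Mg2+ and vanadate. IC50 fitted linearly over four concentrations, usually 0.01-10 μM.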

SMILES strings stand for the structures.

T3 sequence (Q02763 773-1124): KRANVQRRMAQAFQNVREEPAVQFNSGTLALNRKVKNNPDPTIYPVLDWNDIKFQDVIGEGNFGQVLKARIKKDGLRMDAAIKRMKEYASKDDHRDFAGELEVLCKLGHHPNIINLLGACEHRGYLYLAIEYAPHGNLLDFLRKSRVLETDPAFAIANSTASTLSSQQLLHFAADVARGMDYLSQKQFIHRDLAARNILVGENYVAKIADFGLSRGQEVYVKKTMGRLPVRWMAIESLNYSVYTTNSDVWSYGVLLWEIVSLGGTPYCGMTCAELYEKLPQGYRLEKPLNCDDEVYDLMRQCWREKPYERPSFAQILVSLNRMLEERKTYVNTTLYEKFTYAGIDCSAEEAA
T1 sequence (P35968 20-1356): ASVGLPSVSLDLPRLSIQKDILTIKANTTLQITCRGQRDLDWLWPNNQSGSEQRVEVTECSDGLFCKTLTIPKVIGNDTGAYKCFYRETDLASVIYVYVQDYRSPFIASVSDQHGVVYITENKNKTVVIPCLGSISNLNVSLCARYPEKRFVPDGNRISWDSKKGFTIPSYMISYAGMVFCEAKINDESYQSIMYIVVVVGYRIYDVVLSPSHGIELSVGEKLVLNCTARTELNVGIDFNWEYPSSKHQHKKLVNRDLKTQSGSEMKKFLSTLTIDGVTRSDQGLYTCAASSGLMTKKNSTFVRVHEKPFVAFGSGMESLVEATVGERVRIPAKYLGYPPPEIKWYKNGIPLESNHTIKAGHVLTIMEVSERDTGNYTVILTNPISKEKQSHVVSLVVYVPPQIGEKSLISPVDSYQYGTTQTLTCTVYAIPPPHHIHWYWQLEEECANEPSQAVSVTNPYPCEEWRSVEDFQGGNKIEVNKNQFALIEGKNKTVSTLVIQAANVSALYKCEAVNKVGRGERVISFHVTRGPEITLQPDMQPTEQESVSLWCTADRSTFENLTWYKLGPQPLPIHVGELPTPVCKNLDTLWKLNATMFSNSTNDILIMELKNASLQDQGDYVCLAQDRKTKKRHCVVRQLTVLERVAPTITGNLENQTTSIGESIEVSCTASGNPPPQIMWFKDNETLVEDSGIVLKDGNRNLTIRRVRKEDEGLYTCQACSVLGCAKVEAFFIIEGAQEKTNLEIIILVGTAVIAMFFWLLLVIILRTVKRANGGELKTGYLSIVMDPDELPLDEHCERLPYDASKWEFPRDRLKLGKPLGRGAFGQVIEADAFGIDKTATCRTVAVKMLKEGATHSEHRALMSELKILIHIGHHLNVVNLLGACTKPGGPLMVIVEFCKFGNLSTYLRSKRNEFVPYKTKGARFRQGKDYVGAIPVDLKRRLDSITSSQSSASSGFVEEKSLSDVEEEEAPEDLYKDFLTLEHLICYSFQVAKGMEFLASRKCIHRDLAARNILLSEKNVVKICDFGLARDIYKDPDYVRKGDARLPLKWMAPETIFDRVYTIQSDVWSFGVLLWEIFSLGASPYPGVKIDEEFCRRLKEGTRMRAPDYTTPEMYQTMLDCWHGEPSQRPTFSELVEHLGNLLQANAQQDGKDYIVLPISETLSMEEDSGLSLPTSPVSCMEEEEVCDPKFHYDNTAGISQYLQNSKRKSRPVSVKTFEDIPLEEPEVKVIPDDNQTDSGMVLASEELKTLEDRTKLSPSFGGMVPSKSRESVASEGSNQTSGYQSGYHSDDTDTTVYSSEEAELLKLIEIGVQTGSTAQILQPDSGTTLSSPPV

With `CCN(C(=O)Nc1cccc(OC)c1OC)c1cc(Nc2ccc(N3CCN(C)CC3)cc2)ncn1` [Example 46, 3-(2,3-Dimethoxy-phenyl)-1-ethyl-1-{6-[4-(4-methyl-piperazin-1-yl)-phenylamino]-pyrimidin-4-yl}-urea], the inhibition at 10 µM in test [1] was in the range of 67 to 100%; in test [2], 27 to 100%; in test [3], 12 to 100%.
For the compound `COc1cc(OC)c(Cl)c(NC(=O)N(C)c2cc(Nc3ccc(CN(C)C)c(C(F)(F)F)c3)ncn2)c1Cl` [Example 167, 3-(2,6-Dichloro-3,5-dimethoxy-phenyl)-1-[6-(4-dimethylaminomethyl-3-trifluoromethyl-phenylamino)-pyrimidin-4-yl]-1-methyl-urea], the inhibition at 10 µM is 67 to 100% in test [1], 27 to 100% in test [2] and 12 to 100% in test [3].
The matching figures for `COc1cc(NC(=O)N(C)c2cc(Nc3ccc(C(=O)N4CCN(C)CC4)cc3)ncn2)c(Cl)c(OC)c1` [Example 52, 3-(2-Chloro-3,5-dimethoxy-phenyl)-1-methyl-1-{6-[4-(4-methyl-piperazine-1-carbonyl)-phenylamino]-pyrimidin-4-yl}-urea]: 67 to 100%, 27 to 100% and 12 to 100%.
Turning to `COc1cc(NC(=O)Nc2cc(Nc3cccc(OCCN(C)C)c3)ncn2)c(Cl)c(OC)c1` [Example 43, 1-(2-Chloro-3,5-dimethoxy-phenyl)-3-{6-[3-(2-dimethylamino-ethoxy)-phenylamino]-pyrimidin-4-yl}-urea], the inhibition at 10 µM in test [1] is 67 to 100%; in test [2], 27 to 100%; in test [3], 12 to 100%.
On the same counts, the results for `O=C(Nc1cc(Nc2ccc(OCCCN3CCOCC3)cc2)ncn1)Nc1c(Cl)cccc1Cl` [Example 98, 1-(2,6-Dichloro-phenyl)-3-{6-[4-(3-morpholin-4-yl-propoxy)-phenylamino]-pyrimidin-4-yl}-urea] are 67 to 100%, 27 to 100% and 12 to 100%.
Take `COc1cc(OC)c(Cl)c(NC(=O)Nc2cc(Nc3ccc(OCCN4CCCC4)cc3)ncn2)c1Cl` [Example 155, 1-(2,6-Dichloro-3,5-dimethoxy-phenyl)-3-{6-[4-(2-pyrrolidin-1-yl-ethoxy)-phenylamino]-pyrimidin-4-yl}-urea]: the inhibition at 10 µM in test [1] was in the range of 67 to 100%; in test [2], 27 to 100%; in test [3], 12 to 100%.
As to `CN(C(=O)Nc1cccc(C(F)(F)F)c1)c1cc(Nc2ccc(F)cc2)ncn1` [Example 121, 1-[6-(4-Fluoro-phenylamino)-pyrimidin-4-yl]-1-methyl-3-(3-trifluoro-methyl-phenyl)-urea], the inhibition at 10 µM lay within 67 to 100% in test [1], 27 to 100% in test [2] and 12 to 100% in test [3].
On to `O=C(Nc1cc(Nc2cccc(Cl)c2)ncn1)Nc1ccccc1C(F)(F)F` [Example 133, 1-[6-(3-Chloro-phenylamino)-pyrimidin-4-yl]-3-(2-trifluoromethyl-phenyl)-urea], for which the results for the inhibition at 10 µM in test [1], in test [2] and in test [3] were 67 to 100%, 27 to 100% and 12 to 100%, respectively.
For the compound `CCN1CCN(Cc2ccc(Nc3cc(N(C)C(=O)Nc4c(Cl)c(OC)cc(OC)c4Cl)ncn3)cc2)CC1` [Example 149, 3-(2,6-Dichloro-3,5-dimethoxy-phenyl)-1-{6-[4-(4-ethyl-piperazin-1-ylmethyl)-phenylamino]-pyrimidin-4-yl}-1-methyl-urea], the inhibition at 10 µM fell in the range of 67 to 100% in test [1], 27 to 100% in test [2] and 12 to 100% in test [3].
On the same counts, the results for `CCN(CC)CCOc1ccc(Nc2cc(NC(=O)Nc3cc(OC)cc(OC)c3Cl)ncn2)cc1` [Example 42, 1-(2-Chloro-3,5-dimethoxy-phenyl)-3-{6-[4-(2-diethylamino-ethoxy)-phenylamino]-pyrimidin-4-yl}-urea] are 67 to 100%, 27 to 100% and 12 to 100%.
`CN(C(=O)Nc1c(Cl)cccc1Cl)c1cc(Nc2cccc(C(F)(F)F)c2)ncn1` [Example 113, 3-(2,6-Dichloro-phenyl)-1-methyl-1-[6-(3-trifluoromethyl-phenylamino)-pyrimidin-4-yl]-urea]: the results for the inhibition at 10 µM in test [1], in test [2] and in test [3] were 67 to 100%, 27 to 100% and 12 to 100%, respectively.
Turning to `COc1cccc(NC(=O)Nc2cc(Nc3cccc(N4CCN(C)CC4)c3)ncn2)c1` [Example 9, 1-(3-Methoxy-phenyl)-3-{6-[3-(4-methyl-piperazin-1-yl)-phenylamino]-py-rimidin-4-yl}-urea], the results for the inhibition at 10 µM in test [1], in test [2] and in test [3] were 67 to 100%, 27 to 100% and 12 to 100%, respectively.
For `COc1ccc(Cl)c(NC(=O)Nc2cc(Nc3cccc(N4CCN(C)CC4)c3)ncn2)c1` [Example 29, 1-(2-Chloro-5-methoxy-phenyl)-3-{6-[3-(4-methyl-piperazin-1-yl)-phenyl-amino]-pyrimidin-4-yl}-urea], the inhibition at 10 µM in test [1] fell in the range of 67 to 100%; in test [2], 27 to 100%; in test [3], 12 to 100%.
Take `CCN(C(=O)Nc1c(Cl)c(OC)cc(OC)c1Cl)c1cc(Nc2ccc(N3CCN(C)CC3)cc2)ncn1` [Example 143, 3-(2,6-Dichloro-3,5-dimethoxy-phenyl)-1-ethyl-1-{6-[4-(4-methyl-piperazin-1-yl)-phenylamino]-pyrimidin-4-yl}-urea]: the inhibition at 10 µM fell in the range of 67 to 100% in test [1], 27 to 100% in test [2] and 12 to 100% in test [3].
Turning to `Cc1cc(C)cc(NC(=O)Nc2cc(Nc3cccc(N4CCN(C)CC4)c3)ncn2)c1` [Example 23, 1-(3,5-Dimethyl-Phenyl)-3-{6-[3-(4-methyl-piperazin-1-yl)-phenyl-amino]-pyrimidin-4-yl}-urea], the inhibition at 10 µM lay in the range of 67 to 100% in test [1], 27 to 100% in test [2] and 12 to 100% in test [3].
`O=C(Nc1ccc(Cl)cc1)Nc1cc(Nc2cccc(Cl)c2)ncn1` [Example 138, 1-(4-Chloro-phenyl)-3-[6-(3-chloro-phenylamino)-pyrimidin-4-yl]-urea]: the inhibition at 10 µM in test [1] was 67 to 100%; in test [2], 27 to 100%; in test [3], 12 to 100%.
Regarding `COc1cc(NC(=O)N(Cc2cccs2)c2cc(Nc3ccc(N4CCN(C)CC4)cc3)ncn2)c(Cl)c(OC)c1` [Example 56, 3-(2-Chloro-3,5-dimethoxy-phenyl)-1-{6-[4-(4-methyl-piperazin-1-yl)-phenylamino]-pyrimidin-4-yl}-1-thiophen-2-ylmethyl-urea], the values for the inhibition at 10 µM in test [1], in test [2] and in test [3] were 67 to 100%, 27 to 100% and 12 to 100%, respectively.
On to `Cc1cccc(Cl)c1NC(=O)Nc1cc(Nc2cccc(N3CCN(C)CC3)c2)ncn1` [Example 7, 1-(2-Chloro-6-methyl-phenyl)-3-{6-[3-(4-methyl-piperazin-1-yl)-phenyl-amino]-pyrimidin-4-yl}-urea], for which the inhibition at 10 µM in test [1] lay in the range of 67 to 100%; in test [2], 27 to 100%; in test [3], 12 to 100%.
On the same counts, the results for `COc1cc(NC(=O)Nc2cc(Nc3cccc(N4CCN(C)CC4)c3)ncn2)cc(OC)c1` [Example 19, 1-(3,5-Dimethoxy-phenyl)-3-{6-[3-(4-methyl-piperazin-1-yl)-phenyl-amino]-pyrimidin-4-yl}-urea] are 67 to 100%, 27 to 100% and 12 to 100%.
